Measured values from patent US20260217699A1, “BERBERINE TAUROURSODEOXYCHOLATE COMPOSITIONS AND METHODS THEREOF” (SHENZHEN HIGHTIDE BIOPHARMACEUTICAL LTD., priority 2023, published 2026).
Like-named read-outs stand apart in the source and are kept apart here.

Key:
[1] = format: physicochemical; conditions: for Purity/%: initial purity 99.45%
Method: The standard XRPD patterns were collected using a Panalytical EMPYREAN (PANalytical, UK). The X-ray source was a Cu tube that was operated at 45 kV and 40 mA. Powder samples were prepared on zero-background Si holders using manual light pressure to keep the sample surface flat. Each sample was analyzed from 3 to 45° (2θ) with an effective step size of 0.013° 20. The measurement time of each sample was 3.5 min.
The stability of Form A was studied under high temperature (60° C.), high humidity (25° C./92.5% RH), light (25° C./4500 Lux), and accelerated (40° C./75% RH) conditions, and the samples were taken at 7 and 15 days for XRPD characterization and HPLC tests, respectively, and the results are shown in Tables 3-4 and FIG. 17.

[2] = Rapid dynamic vapor sorption (Fast DVS) of Form A; format: physicochemical
Method: (§1) The synthesized BTUDC was designated as crystalline form A (Form A), and its XRPD diffraction and other related characterization data are shown in FIGS. 11-15. […] (peak at 43° C.), and an endothermic peak at about 280° C.

[3] = Thermal transcrystallization experiment (variable temperature XRPD); format: physicochemical; conditions: heating to 150° C. and back to room temperature
Method: The form conversion by heating was carried out using an online variable temperature XRPD Malvern PANalytical Aeris (Malvern Panalytical, UK). The X-ray source was a Cu tube that was operated at 40 kV and 7.5 mA. Powder samples were prepared on zero-background Si holders using manual light pressure to keep the sample surface flat. Each sample was analyzed from 3 to 40° (2θ) with an effective step size of 0.02° 20. The measurement time of each sample was 13 min. The sample was placed on a BTS500 hot stage (Anton Paar, AT) to collected XRPD at RT, heated to the target temperature at 20° C./min and held for 10 min before XRPD analysis. The sample was then cooled to RT and characterized by XRPD.
as §1

[4] = Accelerated 40° C./75% RH, 7 Days
[5] = Accelerated 40° C./75% RH, 15 Days
[6] = High Humidity 25° C./92.5% RH, 7 Days
[7] = High Humidity 25° C./92.5% RH, 15 Days
[8] = Light Exposure 25° C./4500 Lux, 7 Days
[9] = Light Exposure 25° C./4500 Lux, 15 Days

SMILES: COc1ccc2cc3[n+](cc2c1OC)CCc1cc2c(cc1-3)OCO2.C[C@H](CCC(=O)NCCS(=O)(=O)[O-])[C@H]1CC[C@H]2[C@@H]3[C@@H](O)C[C@@H]4C[C@H](O)CC[C@]4(C)[C@H]3CC[C@]12C [Form A, berberine tauroursodeoxycholate]
- XRPD Changes [1, 4]: No
- Purity/% [1, 4]: 99.44%
- XRPD Changes [1, 5]: No
- Purity/% [1, 5]: 99.41%
- Relative Peak Area (%) ([1]; HPLC main peak RRT 1.00, Accelerated 15 Days, Day 0: 99.45): 99.41%
- Relative Peak Area (%) ([1]; HPLC main peak RRT 1.00, High Humidity 15 Days, Day 0: 99.45): 99.44%
- Relative Peak Area (%) ([1]; HPLC main peak RRT 1.00, High Temp. 15 Days, Day 0: 99.45): 99.24%
- Relative Peak Area (%) ([1]; HPLC main peak RRT 1.00, Light Exposure 15 Days, Day 0: 99.45): 98.53%
- Relative Peak Area (%) ([1]; HPLC peak RRT 0.39, Light Exposure 15 Days, Day 0: /): 0.05%
- Relative Peak Area (%) ([1]; HPLC peak RRT 0.55, Light Exposure 15 Days, Day 0: /): 0.06%
- Relative Peak Area (%) ([1]; HPLC peak RRT 0.70, Accelerated 15 Days, Day 0: 0.05): 0.07%
- Relative Peak Area (%) ([1]; HPLC peak RRT 0.70, High Humidity 15 Days, Day 0: 0.05): 0.07%
- Relative Peak Area (%) ([1]; HPLC peak RRT 0.70, High Temp. 15 Days, Day 0: 0.05): 0.10%
- Relative Peak Area (%) ([1]; HPLC peak RRT 0.70, Light Exposure 15 Days, Day 0: 0.05): 0.77%
- Relative Peak Area (%) ([1]; HPLC peak RRT 0.73, Light Exposure 15 Days, Day 0: /): 0.03%
- Relative Peak Area (%) ([1]; HPLC peak RRT 0.76, Light Exposure 15 Days, Day 0: /): 0.07%
- Relative Peak Area (%) ([1]; HPLC peak RRT 0.79, Light Exposure 15 Days, Day 0: /): 0.05%
- Relative Peak Area (%) ([1]; HPLC peak RRT 0.82, Accelerated 15 Days, Day 0: 0.13): 0.13%
- Relative Peak Area (%) ([1]; HPLC peak RRT 0.82, High Humidity 15 Days, Day 0: 0.13): 0.13%
- Relative Peak Area (%) ([1]; HPLC peak RRT 0.82, High Temp. 15 Days, Day 0: 0.13): 0.13%
- Relative Peak Area (%) ([1]; HPLC peak RRT 0.82, Light Exposure 15 Days, Day 0: 0.13): 0.11%
- Relative Peak Area (%) ([1]; HPLC peak RRT 0.84, Accelerated 15 Days, Day 0: 0.06): 0.07%
- Relative Peak Area (%) ([1]; HPLC peak RRT 0.84, High Humidity 15 Days, Day 0: 0.06): 0.06%
- Relative Peak Area (%) ([1]; HPLC peak RRT 0.84, High Temp. 15 Days, Day 0: 0.06): 0.06%
- Relative Peak Area (%) ([1]; HPLC peak RRT 0.84, Light Exposure 15 Days, Day 0: 0.06): 0.06%
- Relative Peak Area (%) ([1]; HPLC peak RRT 0.90, Accelerated 15 Days, Day 0: 0.31): 0.32%
- Relative Peak Area (%) ([1]; HPLC peak RRT 0.90, High Humidity 15 Days, Day 0: 0.31): 0.30%
- Relative Peak Area (%) ([1]; HPLC peak RRT 0.90, High Temp. 15 Days, Day 0: 0.31): 0.48%
- Relative Peak Area (%) ([1]; HPLC peak RRT 0.90, Light Exposure 15 Days, Day 0: 0.31): 0.27%
- XRPD Changes [1, 6]: No
- Purity/% [1, 6]: 99.44%
- XRPD Changes [1, 7]: No
- Purity/% [1, 7]: 99.44%
- XRPD Changes ([1]; High Temp. 60° C., 7 Days): No
- Purity/% ([1]; High Temp. 60° C., 7 Days): 99.28%
- XRPD Changes ([1]; High Temp. 60° C., 15 Days): No
- Purity/% ([1]; High Temp. 60° C., 15 Days): 99.24%
- XRPD Changes [1, 8]: No
- Purity/% [1, 8]: 98.92%
- XRPD Changes [1, 9]: No
- Purity/% [1, 9]: 98.53%
- change in chemical purity (HPLC) ([1]; high temperature, high humidity and accelerated conditions for 15 days): no significant change
- change in chemical purity (HPLC) ([1]; light conditions for 15 days): significant decrease
- adsorption weight gain ([2]; at 80% RH): about 0.46%
- desorption weight gain ([2]; at 80% RH): about 0.49%
- adsorption weight gain ([2]; at 95% RH): about 0.74%
- change in crystalline shape after the DVS test (XRPD) ([2]; compared to the pre-test): did not undergo any change in crystalline shape
- crystalline form during heating [3]: remained unchanged
